The values below come from patent publication US9734283B2, “Genomic features associated with epigenetic control regions and transgenerational inheritance of epimutations” (priority 2011, dated 2017).

This data set has as its system 129 and CD-1 mice. Briefly: Litter size, sex ratio, body and tissue weights (toxicity). The class given is in vivo, mouse. To be noted: transient embryonic exposure. On the procedure: The experimental design involved exposing gestating female inbred 129 strain and outbred CD-1 strain mice to daily intraperitoneal (IP) injections of vehicle (DMSO) (control) or vinclozolin at two doses, 100 mg/kg/day (V1) or 200 mg/kg/day (V2), between embryonic day 7-13 of gestation. In addition, a comparison was used with flutamide IP injections at a 20/mg/kg/day dose. The F1 generation males and females from different litters were bred to generate the F2 generation animals and F2 generation males and females from different litters were bred to generate the F3 generation animals, see Methods below. No sibling or cousin breedings occurred to avoid any inbreeding artifacts. Selected F1, F2 and F3 generation animals from postnatal 90 (P90) or 300 (P300) days of age were analyzed for testis, sperm and other pathologies as previously described.^11, 20, 21
Timed pregnant inbred 129 mice were given intraperitoneal injections with vinclozolin (100 mg/kg·day, 99% pure; ChemService, West Chester, Pa.), flutamide (20 mg/kg·day, Sigma, St. Louis, Mo.) or DMSO in sesame oil (vehicle) as controls, while timed pregnant outbred CD-1 mice were given intraperitoneal injections (IP) with vinclozolin doses: 100 mg/kg·day (V1) or 200 mg/kg·day (V2) or DMSO in sesame oil as controls.^21 Mice were given injections from embryonic day (E) E7-E13, with plug date equal to day 0. Controls were injected with vehicle (DMSO) dose and were matched with vinclozolin or flutamide treatment animals within the same mouse strain at the time of injection and were analyzed together throughout all three generations. The number of treated gestating females used were: for mouse 129 strain (3 controls and 4 vinclozolin treated); for mouse 129 strain flutamide 20 mg/kg/day dose (3 controls and 3 flutamide treated); and for mouse CD-1 strain (4 control and 3 vinclozolin treated (100 mg/kg/day (V1), 3 vinclozolin 200 mg/kg/day (V2)). F1 postnatal (P)P90 males and females from different litters of control, vinclozolin and flutamide treatment groups were bred to generate the F2 generation. F2 generation mice were bred to generate the F3 generation. Breedings were carefully monitored to eliminate any sibling or cousin breeding to remove potential phenotypes as a result of inbreeding. Male mice were collected and analyzed between P60-P90 (P90) for all generations and treatment groups. The number of P90 males collected for replicates for the mouse 129 strain vinclozolin treatment group (i.e. n value) were: for F1 (8 control, 11 vinclozolin); for F2 (11 control, 22 vinclozolin); and for F3 (11 control, 11 vinclozolin). […]

With `C=CC1(C)OC(=O)N(c2cc(Cl)cc(Cl)c2)C1=O` (racemic) [vinclozolin, (RS)-3-(3,5-dichlorophenyl)-5-methyl-5-vinyl-1,3-oxazolidine-2,4-dione], the “body weight, testis weight index, or kidney weight index” value (F1-F3) was “no consistent transgenerational differences”. Also, the “litter size or male/female sex ratio” value (all generations analyzed) is on record as “no consistent transgenerational effects”.
